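Five compound concentrations were applied to cells in 96-well plates for 48 hours; endpoints were derived by simple linear interpolation of the resulting dose-response curve. Here, GI50 denotes the concentration required for 50% inhibition of growth.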 The source made the active and inactive calls. No stated cut-off is given here; in the data, active = GI50 up to about 1.1 µM and inactive = higher.
Legend:
Assay in all cases: growth of human tumour cells (NCI), 48 h
[1] = tested on: 786-0
[2] = tested on: A498
[3] = tested on: A549
[4] = tested on: ACHN
[5] = tested on: BT-549
[6] = tested on: CAKI-1
[7] = tested on: CCRF-CEM
[8] = tested on: COLO 205
[9] = tested on: DU-145
[10] = tested on: EKVX
[11] = tested on: HCC 2998
[12] = tested on: HCT-116
[13] = tested on: HCT-15
[14] = tested on: HL-60
[15] = tested on: HOP-62
[16] = tested on: HOP-92
[17] = tested on: HT-29
[18] = tested on: Hs-578T
[19] = tested on: IGROV-1
[20] = tested on: K562
[21] = tested on: KM12
[22] = tested on: LOX IMVI
[23] = tested on: M14
[24] = tested on: MCF7
[25] = tested on: MDA-MB-231
[26] = tested on: MDA-MB-435
[27] = tested on: MOLT-4
[28] = tested on: NCI-H226
[29] = tested on: NCI-H23
[30] = tested on: NCI-H460
[31] = tested on: NCI-H522
[32] = tested on: NCI/ADR-RES
[33] = tested on: OVCAR-3
[34] = tested on: OVCAR-4
[35] = tested on: OVCAR-5
[36] = tested on: OVCAR-8
[37] = tested on: PC-3
[38] = tested on: RXF 393
[39] = tested on: SF-268
[40] = tested on: SF-295
[41] = tested on: SF-539
[42] = tested on: SK-MEL-28
[43] = tested on: SK-MEL-2
[44] = tested on: SK-MEL-5
[45] = tested on: SK-OV-3
[46] = tested on: SN12C
[47] = tested on: SNB-19
[48] = tested on: SW-620
[49] = tested on: T47D
[50] = tested on: TK-10
[51] = tested on: U-251
[52] = tested on: UACC-257
[53] = tested on: UACC-62
[54] = tested on: UO-31
[55] = tested on: MDA-N
[56] = tested on: Malme-3M
[57] = tested on: RPMI-8226
[58] = tested on: SNB-75
[59] = tested on: SR

Q: `CC1=NN(C2=NS(=O)(=O)c3ccccc3N2C)C(=O)C1` was tested. Which GI50 [1] did it give?
A: Its GI50 is > 100000 nM (inactive).

Q: And the GI50 [2]?
A: Its GI50 is 50800 nM (inactive).

Q: What about the GI50 [3] of the same molecule?
A: The GI50 was > 100000 nM (inactive).

Q: And the GI50 [4]?
A: The GI50 was > 100000 nM (inactive).

Q: What about the GI50 [5] of the same molecule?
A: The GI50 was > 100000 nM (inactive).

Q: And the GI50 [6]?
A: The GI50 was > 100000 nM (inactive).

Q: And the GI50 [7]?
A: Its GI50 is > 100000 nM (inactive).

Q: What about the GI50 [8] of the same molecule?
A: The GI50 was > 100000 nM (inactive).

Q: And the GI50 [9]?
A: The GI50 was > 100000 nM (inactive).

Q: And the GI50 [10]?
A: Its GI50 is > 100000 nM (inactive).

Q: And the GI50 [11]?
A: Its GI50 is > 100000 nM (inactive).

Q: And the GI50 [12]?
A: Its GI50 is > 100000 nM (inactive).

Q: And the GI50 [13]?
A: Its GI50 is over 100000 nM.

Q: What about the GI50 [14] of the same molecule?
A: Its GI50 is > 100000 nM (inactive).

Q: What about the GI50 [15] of the same molecule?
A: Its GI50 is > 100000 nM (inactive).

Q: What about the GI50 [16] of the same molecule?
A: Its GI50 is > 100000 nM (inactive).

Q: What about the GI50 [17] of the same molecule?
A: The GI50 was > 100000 nM (inactive).

Q: And the GI50 [18]?
A: Its GI50 is > 100000 nM (inactive).

Q: And the GI50 [19]?
A: The GI50 was > 100000 nM (inactive).

Q: What about the GI50 [20] of the same molecule?
A: Its GI50 is > 100000 nM (inactive).

Q: And the GI50 [21]?
A: Its GI50 is > 100000 nM (inactive).

Q: And the GI50 [22]?
A: The GI50 was > 100000 nM (inactive).

Q: What about the GI50 [23] of the same molecule?
A: Its GI50 is > 100000 nM (inactive).

Q: What about the GI50 [24] of the same molecule?
A: Its GI50 is > 100000 nM (inactive).

Q: And the GI50 [25]?
A: Its GI50 is > 100000 nM (inactive).

Q: And the GI50 [26]?
A: Its GI50 is > 100000 nM (inactive).

Q: And the GI50 [27]?
A: The GI50 was > 100000 nM (inactive).

Q: What about the GI50 [28] of the same molecule?
A: The GI50 was > 100000 nM (inactive).

Q: And the GI50 [29]?
A: The GI50 was > 100000 nM (inactive).

Q: And the GI50 [30]?
A: Its GI50 is > 100000 nM (inactive).

Q: And the GI50 [31]?
A: The GI50 was > 100000 nM (inactive).

Q: And the GI50 [32]?
A: The GI50 was > 100000 nM (inactive).

Q: And the GI50 [33]?
A: Its GI50 is > 100000 nM (inactive).

Q: What about the GI50 [34] of the same molecule?
A: The GI50 was > 100000 nM (inactive).

Q: What about the GI50 [35] of the same molecule?
A: Its GI50 is > 100000 nM (inactive).

Q: And the GI50 [36]?
A: Its GI50 is > 100000 nM (inactive).

Q: And the GI50 [37]?
A: The GI50 was > 100000 nM (inactive).

Q: What about the GI50 [38] of the same molecule?
A: Its GI50 is > 100000 nM (inactive).

Q: And the GI50 [39]?
A: Its GI50 is > 100000 nM (inactive).

Q: What about the GI50 [40] of the same molecule?
A: The GI50 was > 100000 nM (inactive).

Q: And the GI50 [41]?
A: Its GI50 is > 100000 nM (inactive).

Q: And the GI50 [42]?
A: Its GI50 is > 100000 nM (inactive).

Q: What about the GI50 [43] of the same molecule?
A: The GI50 was > 100000 nM (inactive).

Q: And the GI50 [44]?
A: Its GI50 is > 100000 nM (inactive).

Q: What about the GI50 [45] of the same molecule?
A: The GI50 was > 100000 nM (inactive).

Q: And the GI50 [46]?
A: Its GI50 is > 100000 nM (inactive).

Q: And the GI50 [47]?
A: The GI50 was > 100000 nM (inactive).

Q: What about the GI50 [48] of the same molecule?
A: Its GI50 is > 100000 nM (inactive).

Q: And the GI50 [49]?
A: Its GI50 is > 100000 nM (inactive).

Q: And the GI50 [50]?
A: The GI50 was > 100000 nM (inactive).

Q: And the GI50 [51]?
A: Its GI50 is > 100000 nM (inactive).

Q: What about the GI50 [52] of the same molecule?
A: Its GI50 is > 100000 nM (inactive).

Q: What about the GI50 [53] of the same molecule?
A: Its GI50 is > 100000 nM (inactive).

Q: What about the GI50 [54] of the same molecule?
A: Its GI50 is > 100000 nM (inactive).

Q: `Cc1ccc(S(=O)(=O)n2c3c(c4ccccc42)CCN2C(=O)C(S(=O)(=O)c4ccccc4)=CCC32)cc1` (configuration not stated) was tested. Which GI50 [1] did it give?
A: Its GI50 is 178 nM (active).

Q: And the GI50 [2]?
A: Its GI50 is 213 nM (active).

Q: What about the GI50 [3] of the same molecule?
A: Its GI50 is 1220 nM (inactive).

Q: What about the GI50 [4] of the same molecule?
A: Its GI50 is 193 nM (active).

Q: What about the GI50 [6] of the same molecule?
A: Its GI50 is 262 nM (active).

Q: And the GI50 [7]?
A: Its GI50 is 228 nM (active).

Q: What about the GI50 [8] of the same molecule?
A: The GI50 was 236 nM (active).

Q: What about the GI50 [9] of the same molecule?
A: The GI50 was 170 nM (active).

Q: What about the GI50 [10] of the same molecule?
A: The GI50 was 448 nM (active).

Q: And the GI50 [11]?
A: The GI50 was 212 nM (active).

Q: What about the GI50 [12] of the same molecule?
A: Its GI50 is 170 nM (active).

Q: What about the GI50 [13] of the same molecule?
A: Its GI50 is 188 nM.

Q: What about the GI50 [14] of the same molecule?
A: The GI50 was 233 nM (active).

Q: What about the GI50 [15] of the same molecule?
A: The GI50 was 240 nM (active).

Q: And the GI50 [16]?
A: Its GI50 is 149 nM (active).

Q: What about the GI50 [17] of the same molecule?
A: The GI50 was 212 nM (active).

Q: What about the GI50 [18] of the same molecule?
A: Its GI50 is 579 nM (active).

Q: And the GI50 [19]?
A: The GI50 was 184 nM (active).

Q: And the GI50 [20]?
A: Its GI50 is 202 nM (active).

Q: What about the GI50 [21] of the same molecule?
A: Its GI50 is 194 nM (active).

Q: And the GI50 [22]?
A: Its GI50 is 185 nM (active).

Q: And the GI50 [23]?
A: The GI50 was 175 nM (active).

Q: And the GI50 [24]?
A: The GI50 was 164 nM (active).

Q: What about the GI50 [25] of the same molecule?
A: The GI50 was 186 nM (active).

Q: What about the GI50 [26] of the same molecule?
A: Its GI50 is 211 nM (active).

Q: And the GI50 [55]?
A: Its GI50 is 192 nM (active).

Q: What about the GI50 [27] of the same molecule?
A: Its GI50 is 304 nM (active).

Q: What about the GI50 [56] of the same molecule?
A: The GI50 was 213 nM (active).

Q: What about the GI50 [28] of the same molecule?
A: The GI50 was 1770 nM (inactive).

Q: And the GI50 [29]?
A: The GI50 was 158 nM (active).

Q: What about the GI50 [30] of the same molecule?
A: The GI50 was 368 nM (active).

Q: And the GI50 [31]?
A: Its GI50 is 259 nM (active).

Q: And the GI50 [32]?
A: The GI50 was 218 nM (active).

Q: And the GI50 [33]?
A: The GI50 was 164 nM (active).

Q: And the GI50 [34]?
A: Its GI50 is 179 nM (active).

Q: And the GI50 [35]?
A: Its GI50 is 230 nM (active).

Q: And the GI50 [36]?
A: Its GI50 is 167 nM (active).

Q: And the GI50 [37]?
A: Its GI50 is 239 nM (active).

Q: What about the GI50 [57] of the same molecule?
A: The GI50 was 327 nM (active).

Q: What about the GI50 [38] of the same molecule?
A: The GI50 was 140 nM (active).

Q: And the GI50 [39]?
A: Its GI50 is 238 nM (active).

Q: And the GI50 [40]?
A: The GI50 was 1790 nM (inactive).

Q: And the GI50 [41]?
A: Its GI50 is 191 nM (active).

Q: What about the GI50 [42] of the same molecule?
A: The GI50 was 168 nM (active).

Q: What about the GI50 [43] of the same molecule?
A: The GI50 was 217 nM (active).

Q: And the GI50 [44]?
A: The GI50 was 165 nM (active).

Q: And the GI50 [45]?
A: The GI50 was 1300 nM (inactive).

Q: And the GI50 [46]?
A: Its GI50 is 211 nM (active).

Q: What about the GI50 [47] of the same molecule?
A: Its GI50 is 652 nM (active).

Q: And the GI50 [58]?
A: The GI50 was 157 nM (active).

Q: What about the GI50 [59] of the same molecule?
A: Its GI50 is 255 nM (active).

Q: And the GI50 [48]?
A: The GI50 was 281 nM (active).

Q: And the GI50 [49]?
A: The GI50 was 154 nM (active).

Q: What about the GI50 [50] of the same molecule?
A: The GI50 was 64.6 nM (active).

Q: What about the GI50 [51] of the same molecule?
A: Its GI50 is 220 nM (active).

Q: What about the GI50 [52] of the same molecule?
A: The GI50 was 169 nM (active).

Q: And the GI50 [53]?
A: Its GI50 is 270 nM (active).

Q: And the GI50 [54]?
A: Its GI50 is 234 nM (active).

Source: ChEMBL document CHEMBL1201862, “PubChem BioAssay data set” (2004)
